Eight compounds from ChEMBL document CHEMBL1201862, “PubChem BioAssay data set” (2004) can be followed below.

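How tested: cells in 96-well plates exposed to compound for 48 hours at five concentrations. Abbreviation: GI50, concentration required for 50% inhibition of growth.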 Active and inactive are the calls of the source. Rule as the data show it: active = GI50 up to about 1.1 µM and inactive = higher. Where only a bound is given, the exact number is not on record here.

Test systems include DLD-1; DMS-114; DMS-273; HOP-18; KM-20L2; M19-MEL; RXF 631; SNB-78; XF498.
Holding throughout (test): NCI anticancer screen, dose series, 48 h

On to `O=C1C(Br)=C(c2ccccc2)C(c2ccccc2)=C1c1ccccc1`, for which the GI50 with DLD-1 is 1.82 µM (inactive); in the experiment with DMS-114, 1.89 µM (inactive); in the experiment on DMS-273, 1.79 µM (inactive); in the experiment on HOP-18 it was 4.9 µM (inactive); in the experiment on KM-20L2 it was 4.78 µM (inactive); with M19-MEL it was 2.17 µM (inactive). For the same compound, the GI50 with RXF 631 is 6.49 µM (inactive); in the experiment on SNB-78 it was 2.12 µM (inactive); with XF498 it was 1.81 µM (inactive).
In the case of `O=[N+]([O-])c1ccccc1C1N2CCCCC2[C@@H]2c3[nH]c4ccccc4c3CCN12` (stereo not given in full), the GI50 was 14.2 µM (inactive) in the experiment with DLD-1; 4.34 µM (inactive) in the experiment with DMS-114; 10.9 µM (inactive) with DMS-273; 36.5 µM (inactive) in the experiment with HOP-18; 12.4 µM (inactive) in the experiment with KM-20L2; 6.25 µM (inactive) in the experiment with M19-MEL. Also, the GI50 was 13.2 µM (inactive) with RXF 631, 15.3 µM (inactive) with SNB-78 and 16.9 µM (inactive) with XF498.
For the compound `CCOC(=O)c1ccc(/C(C)=N/NC(N)=S)cc1`, the GI50 in the experiment with DLD-1, in the experiment with DMS-114, in the experiment on DMS-273, with HOP-18, in the experiment on KM-20L2 and in the experiment on M19-MEL was > 100 µM (inactive) throughout. Moreover, the GI50 with RXF 631, with SNB-78 and in the experiment with XF498 was > 100 µM (inactive) throughout.
As for `CCCCOCN/C(N)=N/C#N`, the GI50 in the experiment on DLD-1 is > 100 µM (inactive); in the experiment on DMS-114, > 100 µM (inactive); in the experiment on DMS-273, 68.7 µM (inactive); in the experiment on HOP-18 it was > 100 µM (inactive); in the experiment with KM-20L2, > 100 µM (inactive); in the experiment on RXF 631, > 100 µM (inactive). Moreover, the GI50 in the experiment on SNB-78 and in the experiment on XF498 was > 100 µM (inactive) each time.
For `CCc1cccc(C(C)C)c1NC(=O)/C(=N\NC(N)=O)C(C(=O)OC)c1cnc2ccccc2n1` (stereo not given), the GI50 with DLD-1 is 79.6 µM (inactive); in the experiment on DMS-114 it was 24.9 µM (inactive); in the experiment with DMS-273, 31.6 µM (inactive); in the experiment with HOP-18, 19.1 µM (inactive); in the experiment on KM-20L2 it was 41.6 µM (inactive); with M19-MEL it was 15.9 µM (inactive). The GI50 was 55.2 µM (inactive) with RXF 631, > 100 µM (inactive) in the experiment on SNB-78 and > 100 µM (inactive) in the experiment with XF498.
For the compound `Clc1ccc(Cc2nc3ccccc3s2)c(Cl)c1`, the GI50 with DLD-1 was 15.3 µM (inactive); in the experiment with DMS-114 it was 17 µM (inactive); with DMS-273, 18 µM (inactive); in the experiment on HOP-18 it was 16 µM (inactive); in the experiment on KM-20L2 it was 25.6 µM (inactive); in the experiment on M19-MEL, 15.7 µM (inactive). For the same compound, the values for the GI50 with RXF 631 and in the experiment with XF498 were 16.4 µM (inactive) and 13.6 µM (inactive), respectively.
As to `O=C(c1ccccc1)c1ccc2cccc(O)c2n1`, the GI50 was 27 µM (inactive) in the experiment on DLD-1; 10.9 µM (inactive) in the experiment with DMS-114; 28.4 µM (inactive) in the experiment with DMS-273; 36.1 µM (inactive) in the experiment on HOP-18; 35.6 µM (inactive) in the experiment on KM-20L2; 28.8 µM (inactive) in the experiment with M19-MEL. Besides, the GI50 is 55.1 µM (inactive) with RXF 631, 46.5 µM (inactive) with SNB-78 and 29.2 µM (inactive) in the experiment with XF498.
`COc1cc2c(c(OC)c1OC)-c1ccc(OC)c(=O)cc1[C@@H](NC(=O)c1ccccc1)CC2`: the GI50 in the experiment on DLD-1 was < 0.0124 µM (active); with DMS-114, < 0.01 µM (active); with DMS-273 it was < 0.01 µM (active); in the experiment on HOP-18, 97.5 µM (inactive); in the experiment with KM-20L2, < 0.01 µM (active); with M19-MEL, < 0.01 µM (active). Besides, the GI50 in the experiment with RXF 631 is 0.0115 µM (active); with SNB-78, < 0.01 µM (active); in the experiment on XF498, < 0.01 µM (active).
